Test results published in patent US10385069B2, “Imidazo[2,1-B]thiazole and 5,6-dihydroimidazo[2,1-B]thiazole derivatives useful as S100-inhibitors” (Active Biotech AB, priority 2015, dated 2019).

biological target: T1, interaction between biotinylated human S100A9 and human RAGE-Fc (Homo sapiens, UniProt P06702); test: AlphaScreen inhibition assay, biot-hS100A9:hRAGE-Fc; assay type: binding; settings: biot-hS100A9 pre-incubated with compound 1 h, assay buffer with CaCl2 and ZnCl2
T1 construct: made in house; host or cells: E. coli
T1 sequence (P06702 1-114): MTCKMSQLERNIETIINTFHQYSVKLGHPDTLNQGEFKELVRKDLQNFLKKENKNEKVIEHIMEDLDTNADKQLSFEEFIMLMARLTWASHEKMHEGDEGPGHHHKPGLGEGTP
Excerpt: Inhibition Assay, Biot-hS100A9:hRAGE-Fc
The AlphaScreen (Amplified Luminescent Proximity Homogeneous Assay) contains two types of beads, Alpha Donor beads and Acceptor beads (PerkinElmer). Upon laser excitation at 680 nm a photosensitizer in the Donor bead converts ambient oxygen to a more excited singlet state. The singlet oxygen molecule diffuses (maximum 200 nm) to react with a thioxene derivative in the Acceptor bead and generates a chemiluminescence reaction. Fluorophores in the Acceptor bead subsequently emit light at 520-620 nm which can be detected in the EnVision® Multilabel plate Reader (PerkinElmer). The beads are light sensitive and all work with the beads is performed under subdued light conditions or using green filters on light sources (Roscolux Chroma Green #389, Rosco).
In the AlphaScreen Inhibition Assay described here, protein A (Staphylococcus aureus) conjugated Acceptor beads are used together with streptavidin coated Donor beads (Perkin Elmer 6760617M). The Acceptor beads are pre-incubated with Fc-tagged recombinant human RAGE (rhRAGE-Fc) allowing binding of the rhRAGE-Fc to protein A on the beads. Biotinylated human S100A9 (biot-hS100A9) is pre-incubated with the low molecular test compounds. The pre-mixes are then added to the wells of a micro-plate and incubated allowing interaction between biot-hS100A9 and rhRAGE-Fc. Subsequent addition of streptavidin coated Donor beads causes binding of the streptavidin to the biotinylated hS100A9. After an additional incubation the signal is measured.
Without inhibitory compounds, the interaction of biot-hS100A9 to rhRAGE-Fc will bring the Acceptor and Donor beads in close proximity thus generating a high signal. With an inhibitor present the complex will not form resulting in a decreased signal. The assay is illustrated in FIG. 1.
Chemicals and Reagents. • AlphaScreen® General IgG (Protein A) Detection Kit, (PerkinElmer 6760617M) • HBS-P buffer (GE Healthcare, BR-1003-68) • HBS-N buffer (GE Healthcare, BR-1003-69) • CaCl2 in HBS-P • ZnCl2 in Milli-Q water • DMSO • Biotinylated hS100A9, (biotinylated via cystein by EZ-link Iodoacetyl-PEG2-Biotin reagent (Pierce no. 21334), in HBS-N • rhRAGE-Fc (R&D Systems, 1145-RG-50), in HBS-P
The AlphaScreen assay method is used for screening of the inhibitory effect of different compound samples at fixed concentrations or for IC50 determination by varying the compound concentrations. Samples of test compounds and references are prepared from solutions in DMSO. Relevant reference inhibitors and DMSO are used as controls for defined inhibition and non-inhibition, respectively in the assay. The percent inhibition in assay for test compounds and references are calculated by comparing their obtained assay signals with the signal values for the control with only DMSO (no compound).
Assay concentration of biotinylated hS100A9 and rhRAGE-Fc are batch dependent, and are determined and defined by separate cross-titration experiments using this AlphaScreen inhibition method to verify the optimal setup regarding signal strength and achievement of a defined inhibition with relevant reference compounds. The Final assay concentrations of Acceptor and Donor beads are 20 μg/mL.
Assay buffer is prepared by adding CaCl2 and ZnCl2 to HBS-P and is used freshly prepared in the experiment.
Biotin-hS100A9 solution for the experiment is prepared by dilution of appropriate amount of stock solution biot-hS100A9 in assay buffer (with CaCl2 and ZnCl2) and incubation in room temperature for 30 minutes.
rhRAGE-Fc solution for the experiment is prepared by dilution appropriate amount of rhRAGE-Fc stock in assay buffer.
Protein A Acceptor beads are diluted in assay buffer and are added to an equal volume of the prepared diluted rhRAGE-Fc solution. The beads are light sensitive. The vial is covered with aluminum foil and incubated at room temperature in the dark until biot-hS100A9+compound incubation is finished (see below). […]

| SMILES | IC50 [µM] |
| --- | --- |
| C=C(C)c1c(C(=O)O)nc2sc3c(n12)CC(C)(C)CC3(C)C [Example 287, 9,9,11,11-Tetramethyl-3-(prop-1-en-2-yl)-7-thia-2,5-diazatricyclo[6.4.0.0^2,6]dodeca-1(8),3,5-triene-4-carboxylic acid] | 0.76 |
| O=C(O)C1CN2C(=N1)Sc1c2ccc(Cl)c1Cl (centres unmarked) [Example 185, 9,10-Dichloro-7-thia-2,5-diazatricyclo[6.4.0.0^2,6]dodeca-1(8),5,9,11-tetraene-4-carboxylic acid] | 0.45 |
| COc1ccccc1-c1c(C(=O)O)nc2sc3c(n12)CC(C)(C)CC3(C)C [Example 247, 3-(2-Methoxyphenyl)-9,9,11,11-tetramethyl-7-thia-2,5-diazatricyclo[6.4.0.0^2,6]dodeca-1(8),3,5-triene-4-carboxylic acid] | 1.53 |
| O=C(O)c1cn2c(n1)sc1c(Cl)ccc(Cl)c12 [Example 197, 9,12-Dichloro-7-thia-2,5-diazatricyclo[6.4.0.0^2,6]dodeca-1(8),3,5,9,11-pentaene-4-carboxylic acid] | 1.44 |
| COCCN1CCN(Cc2c(C(=O)O)nc3sc4c(n23)CCC(C(C)(C)C)C4)CC1 (centres unmarked) [Example 272, 10-tert-Butyl-3-{[4-(2-methoxyethyl)piperazin-1-yl]methyl}-7-thia-2,5-diazatricyclo[6.4.0.0^2,6]dodeca-1(8),3,5-triene-4-carboxylic acid] | 1.77 |
| CS(=O)(=O)NC(=O)c1cn2c(n1)sc1cc(OC(F)(F)F)ccc12 [Example 20, N-Methanesulfonyl-10-(trifluoromethoxy)-7-thia-2,5-diazatricyclo[6.4.0.0^2,6]dodeca-1(8),3,5,9,11-pentaene-4-carboxamide] | 2.21 |
| CC(C)(C)C1CCc2c(sc3nc(C(=O)O)c(CN4CCCCC4=O)n23)C1 (centres unmarked) [Example 244, 10-tert-Butyl-3-[(2-oxopiperidin-1-yl)methyl]-7-thia-2,5-diazatricyclo[6.4.0.0^2,6]dodeca-1(8),3,5-triene-4-carboxylic acid] | 1.13 |
| COc1ccc2c(sc3nc(C(=O)O)cn32)c1Cl [Example 218, 9-Chloro-10-methoxy-7-thia-2,5-diazatricyclo[6.4.0.0^2,6]dodeca-1(8),3,5,9,11-pentaene-4-carboxylic acid] | 1.58 |
| CC1(C)CCc2c(sc3nc(C(=O)O)cn23)C1 [Example 33, 10,10-Dimethyl-7-thia-2,5-diazatricyclo[6.4.0.0^2,6]dodeca-1(8),3,5-triene-4-carboxylic acid] | 0.83 |
| O=C(O)c1cn2c(n1)sc1c(Cl)c(N3CCCC3)ccc12 [Example 248, 9-Chloro-10-(pyrrolidin-1-yl)-7-thia-2,5-diazatricyclo[6.4.0.0^2,6]dodeca-1(8),3,5,9,11-pentaene-4-carboxylic acid] | 1 |
| CC(=O)N1CCN(Cc2c(C(=O)O)nc3sc4c(n23)CCC(C(C)(C)C)C4)CC1 (centres unmarked) [Example 275, 3-[(4-Acetylpiperazin-1-yl)methyl]-10-tert-butyl-7-thia-2,5-diazatricyclo[6.4.0.0^2,6]dodeca-1(8),3,5-triene-4-carboxylic acid] | 1.09 |
| CC1(C)Cc2c(sc3nc(C(=O)NS(=O)(=O)CCCN4CCOCC4)cn23)C(C)(C)C1 [Example 55, 9,9,11,11-Tetramethyl-N-[3-(morpholin-4-yl)propanesulfonyl]-7-thia-2,5-diazatricyclo[6.4.0.0^2,6]dodeca-1(8),3,5-triene-4-carboxamide] | 0.55 |

Continued by falling IC50, values first:

| IC50 [µM] | SMILES |
| --- | --- |
| 1.09 | COc1c(Cl)ccc2c1sc1nc(C(=O)O)cn12 [Example 217, 10-Chloro-9-methoxy-7-thia-2,5-diazatricyclo[6.4.0.0^2,6]dodeca-1(8),3,5,9,11-pentaene-4-carboxylic acid] |
| 0.83 | CC1(C)CCc2sc3nc(C(=O)O)cn3c2C1 [Example 38, 11,11-Dimethyl-7-thia-2,5-diazatricyclo[6.4.0.0^2,6]dodeca-1(8),3,5-triene-4-carboxylic acid] |
| 0.82 | O=C(O)c1cn2c(n1)sc1c(F)c(Cl)c(OCCN3CCOCC3)cc12 [Example 289, 10-Chloro-9-fluoro-11-[2-(morpholin-4-yl)ethoxy]-7-thia-2,5-diazatricyclo[6.4.0.0^2,6]dodeca-1(8),3,5,9,11-pentaene-4-carboxylic acid] |
| 0.77 | O=C(O)C1(Cc2ccccc2)CN2C(=N1)Sc1c2ccc(F)c1Cl (centres unmarked) [Example 262, 4-Benzyl-9-chloro-10-fluoro-7-thia-2,5-diazatricyclo[6.4.0.0^2,6]dodeca-1(8),5,9,11-tetraene-4-carboxylic acid] |
| 0.77 | CS(=O)(=O)NC(=O)c1cn2c(n1)sc1c(Cl)c(OC(F)(F)F)ccc12 [Example 220, 9-Chloro-N-methanesulfonyl-10-(trifluoromethoxy)-7-thia-2,5-diazatricyclo[6.4.0.0^2,6]dodeca-1(8),3,5,9,11-pentaene-4-carboxamide] |
| 0.69 | O=C(O)c1cn2c(n1)sc1c(Cl)c(Cl)cc(OCCN3CCOCC3)c12 [Example 241, 9,10-Dichloro-12-[2-(morpholin-4-yl)ethoxy]-7-thia-2,5-diazatricyclo[6.4.0.0^2,6]dodeca-1(8),3,5,9,11-pentaene-4-carboxylic acid] |
| 0.53 | CC1(C)Cc2c(sc3nc(C(=O)O)c(I)n23)C(C)(C)C1 [Example 199, 3-Iodo-9,9,11,11-tetramethyl-7-thia-2,5-diazatricyclo[6.4.0.0^2,6]dodeca-1(8),3,5-triene-4-carboxylic acid] |
| 0.48 | CC1(C)Cc2c(sc3nc(C(=O)NS(C)(=O)=O)cn23)C(C)(C)C1 [Example 53, N-Methanesulfonyl-9,9,11,11-tetramethyl-7-thia-2,5-diazatricyclo[6.4.0.0^2,6]dodeca-1(8),3,5-triene-4-carboxamide] |
| 0.45 | CC(C)(C)C1CCc2c(sc3nc(C(=O)O)cn23)C1 (centres unmarked) [Example 35, 10-tert-Butyl-7-thia-2,5-diazatricyclo[6.4.0.0^2,6]dodeca-1(8),3,5-triene-4-carboxylic acid] |
| 0.36 | CC1(C)Cc2c(sc3nc(C(=O)O)cn23)C1(C)C [Example 36, 4,4,5,5-Tetramethyl-7-thia-1,9-diazatricyclo[6.3.0.0^2,6]undeca-2(6),8,10-triene-10-carboxylic acid] |
| 0.28 | O=C(NS(=O)(=O)C1CC1)c1cn2c(n1)sc1c(Cl)c(Cl)ccc12 [Example 22, 9,10-Dichloro-N-(cyclopropanesulfonyl)-7-thia-2,5-diazatricyclo[6.4.0.0^2,6]dodeca-1(8),3,5,9,11-pentaene-4-carboxamide] |
| 0.18 | O=C(NS(=O)(=O)CC(F)(F)F)c1cn2c(n1)sc1c(Cl)c(Cl)ccc12 [Example 25, 9,10-Dichloro-N-(2,2,2-trifluoroethanesulfonyl)-7-thia-2,5-diazatricyclo[6.4.0.0^2,6]dodeca-1(8),3,5,9,11-pentaene-4-carboxamide] |
| 0.18 | CS(=O)(=O)NC(=O)c1cn2c(n1)sc1c(Cl)c(Cl)ccc12 [Example 21, 9,10-Dichloro-N-methanesulfonyl-7-thia-2,5-diazatricyclo[6.4.0.0^2,6]dodeca-1(8),3,5,9,11-pentaene-4-carboxamide] |
| 0.09 | Cc1c(C(=O)O)nc2sc3c(Cl)c(F)ccc3n12 [Example 234, 9-Chloro-10-fluoro-3-methyl-7-thia-2,5-diazatricyclo[6.4.0.0^2,6]dodeca-1(8),3,5,9,11-pentaene-4-carboxylic acid] |
